In patent US7960349B2 (Bristol-Myers Squibb Company, priority 2006, dated 2011):
Several values for one entry are separate records, joined by “and”; a condition that tells them apart may be missing. Equal values may be shown once. Read-outs that look alike come from different tables or passages of the source. Where a SMILES comes first, the peptide text is derived from it. [ ]: non-standard residue; d: D form. The star is where a group is joined. ξ: configuration not given here. Ala(6-(2-MePh)pyridin-3-yl) = Cc1ccccc1-c1ccc(C[C@H](N)C(=O)O)cn1; Bip(2'-Et-4'-OMe) = CCc1cc(OC)ccc1-c1ccc(C[C@H](N)C(=O)O)cc1; Lactoyl(3-(imidazol-4-yl)) = O=C([C@@H](O)Cc1c[nH]cn1)*; Bip(2'-Me) = Cc1ccccc1-c1ccc(C[C@H](N)C(=O)O)cc1; ξαMePhe(2-F) = CC(N)(Cc1ccccc1F)C(=O)O; Thr(3ξ) = CC(O)[C@H](N)C(=O)O; ξαMeP = CC1(C(=O)O)CCCN1; Aib = CC(C)(N)C(=O)O

Experiments:
ob/ob mice = test: Intraperitoneal glucose tolerance test (ipGTT) in ob/ob mice after sc injection; format: in vivo, mouse; conditions: for Potency in ob/ob mice: % AUC Reduction in Plasma Glucose in an IP Glucose Tolerance Test after SC Injection of Compound: 10 nmol/kg sc, relative to vehicle-treated group; for effect on postprandial plasma insulin / effect on postprandial plasma glucose: sc; for effect on postprandial plasma glucose: 0 to 180 or 210 min; for Potency in ob/ob mice ED50: sc injection, plasma glucose AUC in ipGTT
Procedure: (§1) Peptides were dissolved in an appropriate vehicle at a concentration in nmol/ml equivalent to the dose that was to be administered in nmol/kg so that each mouse would receive the same volume/weight of dosing solution. Male C57BL/6-ob/ob mice (10 weeks old) were randomized into groups of 6 mice per group based on fed plasma glucose and body weight. After an overnight fast, mice were weighed and placed in the experimental lab. After 30 min in the environment, the mice were bled via tail tip at −30 min and immediately injected subcutaneously (sc) with vehicle or the peptide dissolved in vehicle (0.1 ml solution/100 g body weight). At time 0 the mice were bled and then injected intraperitoneally with 50% glucose (2 g/kg) to initiate the intraperitoneal glucose tolerance test (ipGTT). The mice were bled 30, 60, 120 and 180 min after the glucose injection. Blood samples were drawn into potassium EDTA, placed on ice during the study and subsequently centrifuged for 10 min at 3000 rpm at 4° C. Plasma samples were diluted 11-fold for glucose analysis in the Cobas System. Another 5 μl plasma sample was diluted 5-fold with 20 μl of Sample Diluent (Insulin ELISA assay kit, Crystal Chem. Inc.) and stored at −20° C. for subsequent analysis using the Ultra Sensitive Mouse Insulin ELISA kit (Crystal Chem Inc.).

[1] = Dog pharmacokinetic study; format: in vivo; conditions: for half-life: read-out: t½ (converted)
Procedure: The pharmacokinetic parameters of the Compounds of SEQ ID NO: 9, 118, 151 and 158 were determined in male beagle dogs (n=3-4, 14±1 kg). Following an overnight fast, each animal received the Compounds of SEQ ID NO: 9, 118, 151 and 158 either as an intravenous bolus via femoral vein (67 μg/kg) or by subcutaneous injection given at near the shoulder blades (67 μg/kg). Each animal received both intravenous and subcutaneous doses with a one-week washout between doses following a crossover design. The dosing vehicle for both routes of administration was propylene glycol:pH 7.4 phosphate buffer (50:50) or 0.2 M Tris (pH 8.0). Serial blood samples were collected in EDTA-containing microcentrifuge tubes at predose, 0.083, 0.25, 0.5, 0.75, 1, 2, 4, 6, 8, 24, and 30 hours post-dose after intravenous administration; at predose, 0.25, 0.5, 0.75, 1, 2, 4, 6, 8, 24, and 30 hours post-dose after subcutaneous administration. Approximately 0.3 mL of blood was collected at each time point. Blood samples were immediately centrifuged at 4° C. The obtained plasma was frozen with dry ice and stored at −20° C. Plasma drug levels were determined using the LC-MS/MS assay described below.
Plasma samples from the in vivo dog study were prepared for analysis by precipitating plasma proteins with two volumes of AcCN containing an internal standard. The samples were vortex mixed and the precipitated proteins were removed by centrifugation. The resulting supernatants were transferred to a 96-well plate and 10 μL were injected for TFC-LC/MS/MS analysis.
The TFC-HPLC system (Cohesive TX-1 Flux, Aria 2300 System) consisted of a loading pump, an eluting pump, and a CTC PAL autosampler (Cohesive Technologies, Franklin, Mass.). The columns used were Phenomenex Synergi Fusion-RP (C18, 2.0×50 mm, 4μ) (Phenomenex, Torrance, Calif.) as the analytical column and Turbo-Flow (TF) HTLC Cyclone column (0.5×50 mm) (Cohesive Technologies, Franklin, Mass.) as the extraction column for on-line sample processing. The mobile phase A consisted of 10 mM ammonium formate and 0.1% formic acid in water and mobile phase B consisted of 0.1% formic acid in AcCN. Turbo-Flow Chromatography was used to obtain a cleaner sample. A rapid gradient elution was used for analyte separation. The samples were injected onto the Turbo-Flow HTLC Cyclone column and analytes were separated from biological fluid components with using 100% H2O at 1.5 mL/min. The TF column was back flushed and analytes were back eluted from the TF to HPLC analytical column using a ramp to 60% B over 2 min and held there for 30 seconds at 0.3 mL/min to separate and to elute the analytes from the HPLC column into the mass spectrometer. Both columns were washed for an additional minute and then both columns were re-equilibrated at initial conditions.
The HPLC was interfaced to a Sciex API 4000 mass spectrometer (Applied Biosystems, Foster City, Calif.) and was equipped with a TurboIonspray ionization source. Ultra high purity nitrogen was used as the nebulizing and turbo-gas. The temperature of turbo-gas was set at 300° C. and the interface heater was set at 60° C. Selected Reaction Monitoring (SRM) was used for data acquisition. Multiple charged ion species, i.e. (M+2H)^2+ for Compound of SEQ ID NO: 158 were selected in Q1 and were collisionally dissociated with high purity nitrogen at a pressure of 3.5×10^−3 torr in Q2 to form specific product ions which were subsequently monitored in Q3. The ion transitions and voltages are summarized below (Table 4).
The standard curve concentrations, ranging from 1 to 1000 nM, were analyzed in duplicate. The curves were fitted with a linear regression weighted by reciprocal concentration […]. Quality control (QC) samples, prepared in blank matrix at the same concentrations as the standards were also analyzed in each analytical set. […]

[2] = Exposure during ipGTT in ob/ob mice; format: in vivo, mouse; conditions: sc injection
Procedure: as §1

[3] = vehicle propylene glycol/pH 7.4 phosphate buffer (1:1)
[4] = 30 nmol/kg sc, ipGTT ob/ob mice
[5] = dog, plasma, 67 ug/kg, male beagle dogs, intravenous 67 μg/kg
[6] = dog, plasma, sc, 67 ug/kg, male beagle dogs, subcutaneous 67 μg/kg
[7] = vehicle 0.2 M Tris buffer (pH 8.0)

Row | Structure (SMILES) | Potency in ob/ob mice: % AUC Reduction in Plasma Glucose in an IP Glucose Tolerance Test after SC Injection of Compound (ob/ob mice) | effect on postprandial plasma insulin (ob/ob mice; ipGTT ob/ob mice) | effect on postprandial plasma glucose (ob/ob mice; ipGTT ob/ob mice) | Exposure in dogs (sc@67 μg/kg) [1, 3] [nM·h] | Exposure/dose during ipGTT in ob/ob mice [2] [nM * h/nmol/kg] | Potency in ob/ob mice ED50 (ob/ob mice) | Exposure in dogs (sc@67 μg/kg) [1, 7] [nM·h] | other results
1 | CCc1cc(OC)ccc1-c1ccc(C[C@H](NC(=O)[C@H](CC(=O)O)NC(=O)[C@H](CO)NC(=O)[C@@H](NC(=O)C(C)(Cc2ccccc2F)NC(=O)[C@@H](NC(=O)CNC(=O)[C@H](CCC(=O)O)NC(=O)C(C)(C)NC(=O)[C@@H](N)Cc2c[nH]cn2)C(C)O)C(C)O)C(=O)N[C@@H](Cc2ccc(-c3ccccc3C)cc2)C(N)=O)cc1 (stereo partly drawn) [Compound I, reference compound] (H-H[Aib]EG[Thr(3ξ)][ξαMePhe(2-F)][Thr(3ξ)]SD[Bip(2'-Et-4'-OMe)][Bip(2'-Me)]-NH2) | −15% (p = 0.247, NS) | statistically significant dose-dependent increase | decreasing in a dose-dependent manner | 89 | 22 |  |  | 
2 | CCc1cc(OC)ccc1-c1ccc(C[C@H](NC(=O)[C@H](CC(=O)O)NC(=O)[C@H](CO)NC(=O)[C@@H](NC(=O)C(C)(Cc2ccccc2F)NC(=O)[C@@H](NC(=O)CNC(=O)[C@H](CCC(=O)O)NC(=O)C(C)(C)NC(=O)[C@@H](N)Cc2c[nH]cn2)C(C)O)C(C)O)C(=O)N[C@@H](Cc2ccc(-c3ccccc3C)nc2)C(N)=O)cc1 (stereo partly drawn) [SEQ ID NO: 9] (H-H[Aib]EG[Thr(3ξ)][ξαMePhe(2-F)][Thr(3ξ)]SD[Bip(2'-Et-4'-OMe)][Ala(6-(2-MePh)pyridin-3-yl)]-NH2) | −68% (p < 0.0001) | significant increase | statistically significant decrease | 1230 | 18 | 5 nmol/kg | 452 | maximum increase in postprandial plasma insulin AUC (ob/ob mice; [4]): 187.7%; plasma glucose AUC decreased (ob/ob mice; 100 nmol/kg sc, ipGTT ob/ob mice): 85.8%; Potency in ob/ob mice ED50 (ob/ob mice; listed as 9): ED50 = 5 nmoles/kg; AUC [1, 5]: 0.529 ± 0.125 µM·h; MRT [1, 5]: 2.4 ± 0.5 h; clearance ([1]; dog, plasma, 67 ug/kg, male beagle dogs, intravenous 67 μg/kg, read-out: CLp): 1.4 ± 0.4 mL/min/kg; Vd ([1]; dog, plasma, 67 ug/kg, male beagle dogs, intravenous 67 μg/kg, read-out: Vss): 0.21 ± 0.07 L/kg; half-life [1, 5]: 426 ± 126 min; AUC [1, 6]: 0.452 ± 0.153 µM·h; Cmax [1, 6]: 116 ± 34 nM; MRT [1, 6]: 3.6 ± 1 h; Tmax [1, 6]: 1.1 ± 0.6 h; half-life [1, 6]: 156 ± 72 min; bioavailability ([1]; dog, plasma, male beagle dogs, subcutaneous 67 μg/kg vs intravenous): 93 ± 22%
3 | CCc1cc(OC)ccc1-c1ccc(C[C@H](NC(=O)[C@H](CC(=O)O)NC(=O)[C@H](CO)NC(=O)[C@@H](NC(=O)C(C)(Cc2ccccc2F)NC(=O)[C@@H](NC(=O)CNC(=O)[C@H](CCC(=O)O)NC(=O)C2(C)CCCN2C(=O)[C@@H](N)Cc2c[nH]cn2)[C@@H](C)O)[C@@H](C)O)C(=O)N[C@@H](Cc2ccc(-c3ccccc3C)nc2)C(N)=O)cc1 (stereo partly drawn) [SEQ ID NO: 118] (H-H[ξαMeP]EGT[ξαMePhe(2-F)]TSD[Bip(2'-Et-4'-OMe)][Ala(6-(2-MePh)pyridin-3-yl)]-NH2) | −70% (p < 0.001) |  | statistically significant decrease | 4020 | 4.4 | 2.5 nmol/kg |  | plasma glucose AUC decreased (ob/ob mice; [4]): 81%; Potency in ob/ob mice ED50 (ob/ob mice; listed as 118): ED50 = 2.5 nmoles/kg
4 | CCc1cc(OC)ccc1-c1ccc(C[C@H](NC(=O)[C@H](CC(=O)O)NC(=O)[C@H](Cc2c[nH]cn2)NC(=O)[C@@H](NC(=O)C(C)(Cc2ccccc2F)NC(=O)[C@@H](NC(=O)CNC(=O)[C@H](CCC(=O)O)NC(=O)C2(C)CCCN2C(=O)[C@@H](O)Cc2c[nH]cn2)[C@@H](C)O)[C@@H](C)O)C(=O)N[C@@H](Cc2ccc(-c3ccccc3C)nc2)C(N)=O)cc1 (stereo partly drawn) [SEQ ID NO: 151] ({Lactoyl(3-(imidazol-4-yl))}-[ξαMeP]EGT[ξαMePhe(2-F)]THD[Bip(2'-Et-4'-OMe)][Ala(6-(2-MePh)pyridin-3-yl)]-NH2) |  |  | statistically significant decrease |  | 16 | 1 nmol/kg and 2 nmol/kg | 1566 | plasma glucose AUC decreased (ob/ob mice; 3 nmol/kg sc, ipGTT ob/ob mice): 67%; Potency in ob/ob mice ED50 (ob/ob mice; listed as 151): ED50 = 1 nmoles/kg
